Source: PubChem BioAssay (NCI)
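GI50 is the concentration that inhibits growth by half. The concentration for full growth arrest is given as TGI.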

Legend:
Assay in all cases: DTP human tumour cell line panel, 384-well format
[1] = test system: IGROV1 ovarian
[2] = test system: SK-OV-3 ovarian
[3] = test system: 786-0 renal
[4] = test system: SK-MEL-2 melanoma
[5] = test system: SNB-19 CNS
[6] = test system: HCT-15 colon
[7] = test system: UACC-257 melanoma
[8] = test system: SW-620 colon
[9] = test system: MDA-MB-468 breast
[10] = test system: K-562 leukemia
[11] = test system: TK-10 renal
[12] = test system: A498 renal
[13] = test system: OVCAR-5 ovarian
[14] = test system: SK-MEL-5 melanoma
[15] = test system: HCT-116 colon
[16] = test system: CCRF-CEM leukemia
[17] = test system: PC-3 prostate
[18] = test system: CAKI-1 renal
[19] = test system: ACHN renal
[20] = test system: UACC-62 melanoma
[21] = test system: LOX IMVI melanoma
[22] = test system: HOP-62 NSCLC
[23] = test system: M14 melanoma
[24] = test system: NCI-H23 lung
[25] = test system: UO-31 renal
[26] = test system: T-47D breast
[27] = test system: RXF 393 renal
[28] = test system: BT-549 breast
[29] = test system: NCI-H226 lung
[30] = test system: KM12 colon
[31] = test system: NCI-H322M lung
[32] = test system: COLO 205 colon
[33] = test system: SF-539 CNS
[34] = test system: MALME-3M melanoma
[35] = test system: SN12C renal
[36] = test system: HOP-92 NSCLC
[37] = test system: MDA-MB-231 breast
[38] = test system: HCC-2998 colon
[39] = test system: HS 578T breast
[40] = test system: SF-268 CNS
[41] = test system: SR leukemia
[42] = test system: MDA-MB-435 melanoma
[43] = test system: NCI-H522 lung
[44] = test system: SF-295 CNS
[45] = test system: SK-MEL-28 melanoma
[46] = test system: MOLT-4 leukemia
[47] = test system: HL-60(TB) leukemia
[48] = test system: DU-145 prostate
[49] = test system: HT29 colon
[50] = test system: SNB-75 CNS
[51] = test system: RPMI-8226 leukemia
[52] = test system: NCI/ADR-RES ovarian
[53] = test system: EKVX NSCLC
[54] = test system: OVCAR-3 ovarian
[55] = test system: OVCAR-4 ovarian
[56] = test system: NCI-H460 NSCLC
[57] = test system: A549 NSCLC
[58] = test system: U251 glioblastoma
[59] = test system: MCF7 breast

N[C@H](CCC(=O)N[C@@H](Cc1c[nH]c2ccccc12)C(=O)O)C(=O)O was tested, and the GI50 [1] was > 100 µM, the TGI [1] was > 100 µM and the GI50 [2] was > 100 µM. For the same compound, the TGI [2] was > 100 µM, the GI50 [3] was > 100 µM and the TGI [3] was > 100 µM. The GI50 [4] was > 100 µM, the TGI [4] was > 100 µM and the GI50 [5] was > 100 µM. The TGI [5] was > 100 µM, the GI50 [6] was > 100 µM and the TGI [6] was > 100 µM. For the same compound, the GI50 [7] was > 100 µM, the TGI [7] was > 100 µM and the GI50 [8] was > 100 µM. The TGI [8] was > 100 µM, the GI50 [9] was > 100 µM and the TGI [9] was > 100 µM. For the same compound, the GI50 [10] was > 100 µM, the TGI [10] was > 100 µM and the GI50 [11] was > 100 µM. The TGI [11] was > 100 µM, the GI50 [12] was > 100 µM and the TGI [12] was > 100 µM. For the same compound, the GI50 [13] was > 100 µM, the TGI [13] was > 100 µM and the GI50 [14] was > 100 µM. For the same compound, the TGI [14] was > 100 µM, the GI50 [15] was > 100 µM and the TGI [15] was > 100 µM. For the same compound, the GI50 [16] was > 100 µM, the TGI [16] was > 100 µM and the GI50 [17] was > 100 µM. The TGI [17] was > 100 µM, the GI50 [18] was > 100 µM and the TGI [18] was > 100 µM. The GI50 [19] was > 100 µM, the TGI [19] was > 100 µM and the GI50 [20] was > 100 µM. For the same compound, the TGI [20] was > 100 µM, the GI50 [21] was > 100 µM and the TGI [21] was > 100 µM. The GI50 [22] was > 100 µM, the TGI [22] was > 100 µM and the GI50 [23] was > 100 µM. The TGI [23] was > 100 µM, the GI50 [24] was > 100 µM and the TGI [24] was > 100 µM. The GI50 [25] was > 100 µM, the TGI [25] was > 100 µM and the GI50 [26] was > 100 µM. For the same compound, the TGI [26] was > 100 µM, the GI50 [27] was > 100 µM and the TGI [27] was > 100 µM. For the same compound, the GI50 [28] was > 100 µM, the TGI [28] was > 100 µM and the GI50 [29] was > 100 µM. The TGI [29] was > 100 µM, the GI50 [30] was > 100 µM and the TGI [30] was > 100 µM. For the same compound, the GI50 [31] was > 100 µM, the TGI [31] was > 100 µM and the GI50 [32] was > 100 µM. For the same compound, the TGI [32] was > 100 µM, the GI50 [33] was > 100 µM and the TGI [33] was > 100 µM. The GI50 [34] was > 100 µM, the TGI [34] was > 100 µM and the GI50 [35] was > 100 µM. For the same compound, the TGI [35] was > 100 µM, the GI50 [36] was > 100 µM and the TGI [36] was > 100 µM. The GI50 [37] was > 100 µM, the TGI [37] was > 100 µM and the GI50 [38] was > 100 µM. The TGI [38] was > 100 µM, the GI50 [39] was > 100 µM and the TGI [39] was > 100 µM. For the same compound, the GI50 [40] was > 100 µM, the TGI [40] was > 100 µM and the GI50 [41] was > 100 µM. For the same compound, the TGI [41] was > 100 µM, the GI50 [42] was > 100 µM and the TGI [42] was > 100 µM. The GI50 [43] was > 100 µM, the TGI [43] was > 100 µM and the GI50 [44] was > 100 µM. The TGI [44] was > 100 µM, the GI50 [45] was > 100 µM and the TGI [45] was > 100 µM. For the same compound, the GI50 [46] was > 100 µM, the TGI [46] was > 100 µM and the GI50 [47] was > 100 µM. For the same compound, the TGI [47] was > 100 µM, the GI50 [48] was > 100 µM and the TGI [48] was > 100 µM. For the same compound, the GI50 [49] was > 100 µM, the TGI [49] was > 100 µM and the GI50 [50] was > 100 µM. For the same compound, the TGI [50] was > 100 µM, the GI50 [51] was > 100 µM and the TGI [51] was > 100 µM. The GI50 [52] was > 100 µM, the TGI [52] was > 100 µM and the GI50 [53] was > 100 µM. For the same compound, the TGI [53] was > 100 µM, the GI50 [54] was > 100 µM and the TGI [54] was > 100 µM. For the same compound, the GI50 [55] was > 100 µM, the TGI [55] was > 100 µM and the GI50 [56] was > 100 µM. The TGI [56] was > 100 µM, the GI50 [57] was > 100 µM and the TGI [57] was > 100 µM. The GI50 [58] was > 100 µM, the TGI [58] was > 100 µM and the GI50 [59] was > 100 µM. The TGI [59] was > 100 µM.
